Test: mn = molality of the nth substance listed, in mol/kg
Settings: Liquid, isochoric method

S [hydrogen sulfide] + CCCCn1cc[n+](C)c1.O=S(=O)([O-])C(F)(F)F
Settings	molar volume [m3/mol]
303.15 K, 172.6 kPa, m1 = 0.5717	0.0001972
303.15 K, 339.1 kPa, m1 = 1.141	0.000178
303.15 K, 491.8 kPa, m1 = 1.715	0.0001633
303.15 K, 691.5 kPa, m1 = 2.517	0.0001472
303.15 K, 857 kPa, m1 = 3.192	0.0001371
303.15 K, 1016.5 kPa, m1 = 3.857	0.0001282
303.15 K, 1178.1 kPa, m1 = 4.512	0.0001212
303.15 K, 1368.5 kPa, m1 = 5.449	0.0001129
303.15 K, 1494.2 kPa, m1 = 6.127	0.000108
313.15 K, 169.3 kPa, m1 = 0.4237	0.0002046
313.15 K, 392.6 kPa, m1 = 1.017	0.0001836
313.15 K, 605 kPa, m1 = 1.634	0.0001669
313.15 K, 813.7 kPa, m1 = 2.295	0.0001529
313.15 K, 1021.5 kPa, m1 = 3.03	0.0001406
313.15 K, 1244.6 kPa, m1 = 3.892	0.0001294
313.15 K, 1455.3 kPa, m1 = 4.807	0.00012
313.15 K, 1592.1 kPa, m1 = 5.49	0.0001142
323.15 K, 188 kPa, m1 = 0.3783	0.000208
323.15 K, 418.4 kPa, m1 = 0.874	0.0001897
323.15 K, 647.6 kPa, m1 = 1.409	0.0001741
323.15 K, 1041.4 kPa, m1 = 2.42	0.0001522
323.15 K, 1294 kPa, m1 = 3.138	0.0001407
323.15 K, 1501.2 kPa, m1 = 3.819	0.0001319
323.15 K, 1614.4 kPa, m1 = 4.192	0.0001272
333.15 K, 196.6 kPa, m1 = 0.3257	0.0002118
333.15 K, 459.2 kPa, m1 = 0.7804	0.0001944
333.15 K, 705.7 kPa, m1 = 1.237	0.0001803
333.15 K, 907.8 kPa, m1 = 1.635	0.00017
333.15 K, 1176.8 kPa, m1 = 2.188	0.0001581
333.15 K, 1400.8 kPa, m1 = 2.685	0.0001492
333.15 K, 1570.7 kPa, m1 = 3.114	0.0001426
343.15 K, 207.6 kPa, m1 = 0.279	0.0002154
343.15 K, 456.9 kPa, m1 = 0.6403	0.000201
343.15 K, 706.7 kPa, m1 = 1.021	0.0001882
343.15 K, 923.5 kPa, m1 = 1.369	0.0001783
343.15 K, 1176.5 kPa, m1 = 1.798	0.0001679
343.15 K, 1391.1 kPa, m1 = 2.179	0.0001599
343.15 K, 1632 kPa, m1 = 2.646	0.0001515

CCCCn1cc[n+](C)c1.O=S(=O)([O-])C(F)(F)F [1-butyl-3-methylimidazolium trifluoromethanesulfonate] + O=C=O
Settings	molar volume [m3/mol]
303.15 K, 233.6 kPa, m2 = 0.1586	0.0002163
303.15 K, 712 kPa, m2 = 0.5016	0.0002044
303.15 K, 1209.3 kPa, m2 = 0.8577	0.0001937
303.15 K, 1706.3 kPa, m2 = 1.236	0.0001836
303.15 K, 2180.4 kPa, m2 = 1.637	0.0001742
303.15 K, 2663.3 kPa, m2 = 2.038	0.000166
303.15 K, 3188 kPa, m2 = 2.481	0.000158
313.15 K, 244.1 kPa, m2 = 0.1345	0.0002188
313.15 K, 713.2 kPa, m2 = 0.418	0.0002088
313.15 K, 1212.5 kPa, m2 = 0.7087	0.0001997
313.15 K, 1722.9 kPa, m2 = 1.029	0.0001907
313.15 K, 2194.4 kPa, m2 = 1.329	0.0001831
313.15 K, 2669.6 kPa, m2 = 1.632	0.0001761
313.15 K, 3135.3 kPa, m2 = 1.944	0.0001696
323.15 K, 239.4 kPa, m2 = 0.1102	0.0002213
323.15 K, 707.7 kPa, m2 = 0.3453	0.0002129
323.15 K, 1223.5 kPa, m2 = 0.5993	0.0002047
323.15 K, 1721.4 kPa, m2 = 0.8739	0.0001966
323.15 K, 2204.9 kPa, m2 = 1.131	0.0001897
323.15 K, 2697.2 kPa, m2 = 1.397	0.0001832
323.15 K, 3198.1 kPa, m2 = 1.707	0.0001762
333.15 K, 239.9 kPa, m2 = 0.0968	0.0002234
333.15 K, 756.2 kPa, m2 = 0.3124	0.0002157
333.15 K, 1259.5 kPa, m2 = 0.5379	0.0002083
333.15 K, 1767.4 kPa, m2 = 0.7626	0.0002015
333.15 K, 2242.8 kPa, m2 = 0.9814	0.0001953
333.15 K, 2734.2 kPa, m2 = 1.226	0.000189
333.15 K, 3236.7 kPa, m2 = 1.474	0.0001831
343.15 K, 250.3 kPa, m2 = 0.0877	0.0002253
343.15 K, 746.9 kPa, m2 = 0.2655	0.0002189
343.15 K, 1255 kPa, m2 = 0.4535	0.0002126
343.15 K, 1759 kPa, m2 = 0.6555	0.0002063
343.15 K, 2265.7 kPa, m2 = 0.8561	0.0002004
343.15 K, 2732.5 kPa, m2 = 1.072	0.0001946
343.15 K, 3216 kPa, m2 = 1.276	0.0001895

CCCCCC[n+]1ccn(C)c1.O=S(=O)([N-]S(=O)(=O)C(F)(F)F)C(F)(F)F + O=C=O
Settings	molar volume [m3/mol]
303.15 K, 228.1 kPa, m2 = 0.1549	0.0003078
303.15 K, 400.5 kPa, m2 = 0.277	0.0002962
303.15 K, 642.1 kPa, m2 = 0.4471	0.0002815
303.15 K, 786.2 kPa, m2 = 0.5432	0.0002738
303.15 K, 1036.5 kPa, m2 = 0.726	0.0002604
303.15 K, 1399.2 kPa, m2 = 0.9896	0.000243
303.15 K, 1689 kPa, m2 = 1.194	0.0002316
303.15 K, 1806.5 kPa, m2 = 1.29	0.0002265
303.15 K, 2065.3 kPa, m2 = 1.48	0.000217
303.15 K, 2289.9 kPa, m2 = 1.65	0.0002093
303.15 K, 2463.9 kPa, m2 = 1.782	0.0002037
303.15 K, 2819.3 kPa, m2 = 2.069	0.0001926
303.15 K, 3076.9 kPa, m2 = 2.267	0.0001856
303.15 K, 3555.5 kPa, m2 = 2.65	0.0001736
313.15 K, 337.1 kPa, m2 = 0.1947	0.0003066
313.15 K, 699.4 kPa, m2 = 0.4069	0.0002879
313.15 K, 1209.5 kPa, m2 = 0.7242	0.0002644
313.15 K, 1653.6 kPa, m2 = 1.006	0.0002471
313.15 K, 2111.8 kPa, m2 = 1.285	0.0002306
313.15 K, 2538.3 kPa, m2 = 1.615	0.0002177
313.15 K, 3188.6 kPa, m2 = 2.11	0.0001995
323.15 K, 465.7 kPa, m2 = 0.2272	0.0003063
323.15 K, 850.7 kPa, m2 = 0.4281	0.0002889
323.15 K, 1323.9 kPa, m2 = 0.6731	0.0002706
323.15 K, 1708.8 kPa, m2 = 0.8789	0.0002573
323.15 K, 2180.2 kPa, m2 = 1.152	0.0002419
323.15 K, 2704.6 kPa, m2 = 1.345	0.0002273
323.15 K, 3105.7 kPa, m2 = 1.546	0.0002172
333.15 K, 245.6 kPa, m2 = 0.1044	0.0003209
333.15 K, 519.1 kPa, m2 = 0.2209	0.0003096
333.15 K, 894.3 kPa, m2 = 0.3855	0.0002952
333.15 K, 1364.2 kPa, m2 = 0.6046	0.0002782
333.15 K, 1849.2 kPa, m2 = 0.8295	0.0002632
333.15 K, 2312.2 kPa, m2 = 1.051	0.0002501
333.15 K, 2799.2 kPa, m2 = 1.3	0.0002373
343.15 K, 474.1 kPa, m2 = 0.1783	0.0003165
343.15 K, 952.8 kPa, m2 = 0.3503	0.0003002
343.15 K, 1440.2 kPa, m2 = 0.553	0.0002849
343.15 K, 1937.6 kPa, m2 = 0.7557	0.0002707
343.15 K, 2453.7 kPa, m2 = 0.974	0.0002573
343.15 K, 2938.6 kPa, m2 = 1.181	0.0002461
343.15 K, 3446.9 kPa, m2 = 1.424	0.0002344
353.15 K, 502 kPa, m2 = 0.1643	0.0003208
353.15 K, 987.3 kPa, m2 = 0.3338	0.0003053
353.15 K, 1440.2 kPa, m2 = 0.4916	0.0002925
353.15 K, 1907.3 kPa, m2 = 0.6717	0.0002794
353.15 K, 2419.6 kPa, m2 = 0.8598	0.0002671
353.15 K, 2888.3 kPa, m2 = 1.037	0.0002567
